Results reported in patent US10195196B2, “1,4-disubstituted pyridazine analogs there of and methods for treating SMN-deficiency-related conditions” (NOVARTIS AG, priority 2012, dated 2019).
pEC50: −log10 of the molar value.

System: SMN protein
Assay: cellular SMN ELISA (SMN protein elevation)
Assay type: cell-based
Settings: myoblast cell line from SMNdelta7 mouse model, 24 hours treatment; for SMN activity Fold: fold activation over DMSO control
Protocol: A cellular SMN ELISA was used to measure the effects of low molecular weight compounds on SMN protein elevation. Cells from a myoblast cell line derived from the SMNdelta7 mouse model (kind gift from Steve Burden, NYU) were seeded into a 384-well plate at a density of 3000 cells/well and treated with compounds for 24 hours. ELISA capture plates were prepared by coating 384-well plates (Immulon 4HBX) with 0.5 ug/mL of anti-SMN mAb (BD Science, Catalog number 610647) at 4° C. overnight. The plates were washed 5 times with 110 uL of PBS-Tween (0.05% Tween-20, PBST), blocked with 100 uL of 1% BSA in PBST for 2 hours and washed (5 times) with 100 uL of PBST. After 24 hours of compound treatment cells were lysed in a modified RIPA-buffer, on ice for 1 hour. 20 uL of lysate and 20 uL of 1% BSA were then added to the ELISA capture plates and incubated at 4° C. overnight. Plates were washed (5 times) with PBST and then incubated with 1:100 dilution of primary rabbit anti-SMN polyclonal antibody (Santa cruz, Catalog number SC-15320) at room temperature for 1 hour and subsequently washed (5 times) with 110 uL of PBST. This was followed by addition of 1:100 Goat anti-Rabbit IgG-HRP linked (Cell Signaling, Catalog number 7074) secondary antibody for 1 hour. Plates were then washed with PBST and incubated with 40 uL TMB substrate (Cell Signaling, Catalog number 7004L) at room temperature for 1-10 minutes with shaking. The reaction was stopped by addition of 40 uL of stop solution (Cell signaling, Catalog number 7002L) and absorption was measured at 450 nm. Data was reported as fold activation over DMSO control, and EC50.
ELISA assay condition 1: compound concentration range 20 nM-10 uM; ELISA assay condition 2: compound concentration 100 pM-10 uM.

[1] = ELISA condition 1: compound concentration range 20 nM-10 uM
[2] = ELISA condition 2: compound concentration 100 pM-10 uM

pEC50 [1] | Compound | SMN activity Fold [1] [Fold] | pEC50 [2] | SMN activity Fold [2] [Fold]
5.99 | CC1(C)CC(Nc2ccc(-c3ccc4scnc4c3)nn2)CC(C)(C)N1 [Example 2-2, 6-(benzo[d]thiazol-5-yl)-N-(2,2,6,6-tetramethyl-piperidin-4-yl)pyridazin-3-amine] | 2.37 |  | 
5.92 | Cc1nc2ccc(-c3ccc(NC4CC(C)(C)NC(C)(C)C4)nn3)cc2o1 [Example 2-3, 6-(2-methylbenzo-[d]oxazol-6-yl)-N-(2,2,6,6-tetramethyl-piperidin-4-yl)pyridazin-3-amine] | 2.46 |  | 
7.19 | CC1(C)CC(Nc2ccc(-c3cc4ccccc4cc3O)nn2)CC(C)(C)N1 [Example 3-3, 3-(6-(2,2,6,6-tetramethylpiperidin-4-ylamino)pyridazin-3-yl)naphthalen-2-ol] | 2.48 |  | 
6.21 | CN1C(C)(C)CC(Nc2ccc(-c3ccc(Cl)cc3O)nn2)CC1(C)C [Example 3-4, 5-chloro-2-(6-(1,2,2,6,6-pentamethylpiperidin-4-ylamino)pyridazin-3-yl)phenol] | 2.03 |  | 
 | CC1(C)CC(Oc2ccc(-c3cc4ccccc4cc3O)nn2)CC(C)(C)N1 [Example 3-6, 3-[6-(2,2,6,6-tetramethyl-piperidin-4-yloxy)-pyridazin-3-yl]-naphthalen-2-ol] |  | 6.96 | 3.01
 | CN(c1ccc(-c2cccc(F)c2O)nn1)C1CC(C)(C)NC(C)(C)C1 [Example 3-8, 2-fluoro-6-{6-[methyl-(2,2,6,6-tetramethyl-piperidin-4-yl)-amino]-pyridazin-3-yl}-phenol] |  | 5.80 | 2.72
 | COc1cc(O)c(-c2ccc(N(C)C3CC(C)(C)NC(C)(C)C3)nn2)c(OC)c1 [Example 3-9, 3,5-dimethoxy-2-{6-[methyl-(2,2,6,6-tetramethyl-piperidin-4-yl)-amino]-pyridazin-3-yl}-phenol] |  | 6.49 | 2.88
 | COc1cc(O)c(-c2ccc(N(C)C3CC(C)(C)NC(C)(C)C3)nn2)cc1OC [Example 3-10, 4,5-dimethoxy-2-{6-[methyl-(2,2,6,6-tetramethyl-piperidin-4-yl)-amino]-pyridazin-3-yl}-phenol] |  | 6.07 | 2.53
 | COc1ccc(-c2ccc(N(C)C3CC(C)(C)NC(C)(C)C3)nn2)c(O)c1 [Example 3-11, 5-methoxy-2-{6-[methyl-(2,2,6,6-tetramethyl-piperidin-4-yl)-amino]-pyridazin-3-yl}-phenol] |  | 6.66 | 2.47
 | C=CCc1c(O)ccc2cc(-c3ccc(N(C)C4CC(C)(C)NC(C)(C)C4)nn3)ccc12 [Example 6-1, 1-allyl-6-(6-(methyl(2,2,6,6-tetramethylpiperidin-4-yl)amino)pyridazin-3-yl)naphthalen-2-ol] |  | 6.20 | 2.04
5.56 | CN1C(C)(C)CC(Nc2ccc(-c3cc4ccccc4s3)nn2)CC1(C)C [Example 7-1, 6-(benzo[b]thiophen-2-yl)-N-(1,2,2,6,6-pentamethylpiperidin-4-yl)pyridazin-3-amine] | 2.54 |  | 
 | Cc1cnc(-c2ccc(-c3ccc(N(C)C4CC(C)(C)NC(C)(C)C4)nn3)c(O)c2)o1 [Example 10-1, 5-(5-methyl-oxazol-2-yl)-2-{6-[methyl-(2,2,6,6-tetramethyl-piperidin-4-yl)-amino]-pyridazin-3-yl}-phenol] |  | 7.51 | 2.99
 | CN(c1ccc(-c2ccc(-n3ccnc3)cc2O)nn1)C1CC(C)(C)NC(C)(C)C1 [Example 12-1, 5-(1H-imidazole-1-yl)-2-(6-(methyl(2,2,6,6-tetramethyl-piperidin-4-yl)amino)pyridazin-3-yl)phenol] |  | 8.40 | 3.13
 | CN(c1ccc(-c2ccc(-n3cc(N)cn3)cc2O)nn1)C1CC(C)(C)NC(C)(C)C1 [Example 13-1, 5-(4-amino-1H-pyrazole-1-yl)-2-(6-(methyl(2,2,6,6-tetramethylpiperidin-4-yl)amino)pyridazin-3-yl)phenol] |  | 7.70 | 3.46
 | CN(c1ccc(-c2ccc(-c3cnn(CCN4CCOCC4)c3)cc2O)nn1)C1CC(C)(C)NC(C)(C)C1 [Example 16-1, 2-(6-(methyl(2,2,6,6-tetramethylpiperidin-4-yl)amino)pyridazin-3-yl)-5-(1-(2-morpholino-ethyl)-1H-pyrazol-4-yl)phenol] |  | 7.11 | 2.66
 | CN(c1ccc(-c2ccc(-c3cnn(C)c3)cc2O)nn1)C1CC(C)(C)NC(C)(C)C1 [Example 16-2, 2-(6-(methyl(2,2,6,6-tetramethylpiperidin-4-yl)amino)pyridazin-3-yl)-5-(1-methyl-1H-pyrazol-4-yl)phenol] |  | 7.82 | 3.21
 | CN(c1ccc(-c2ccc(-n3nccc3N)cc2O)nn1)C1CC(C)(C)NC(C)(C)C1 [Example 16-3, 5-(5-amino-1H-pyrazol-1-yl)-2-(6-(methyl-(2,2,6,6-tetramethyl-piperidin-4-yl)amino)pyridazin-3-yl)phenol] |  | 6.20 | 2.39
 | CN(c1ccc(-c2cc(-n3cccn3)ccc2O)nn1)C1CC(C)(C)NC(C)(C)C1 [Example 16-4, 2-(6-(methyl(2,2,6,6-tetramethylpiperidin-4-yl)amino)pyridazin-3-yl)-4-(1H-pyrazol-1-yl)phenol] |  | 7.03 | 2.71
 | CC1(C)CC(N(CCO)c2ccc(-c3ccc(-n4cccn4)cc3O)nn2)CC(C)(C)N1 [Example 16-5, 2-{6-[(2-hydroxy-ethyl)-(2,2,6,6-tetramethyl-piperidin-4-yl)-amino]-pyridazin-3-yl}-5-pyrazol-1-yl-phenol] |  | 7.62 | 2.41
7.15 | C[C@@H]1C[C@H](Oc2ccc(-c3ccc(-n4cccn4)cc3O)nn2)C[C@H](C)N1 [Example 17-2, 2-(6-(((2S,4R,6R)-2,6-Dimethylpiperidin-4-yl)oxy)pyridazin-3-yl)-5-(1H-pyrazol-1-yl)phenol] | 2.62 |  | 
 | Oc1cc(-n2cccn2)ccc1-c1ccc(OC2CCNC2)nn1 (stereo not shown) [Example 17-5, 5-(1H-pyrazol-1-yl)-2-(6-(pyrrolidin-3-yloxy)pyridazin-3-yl)phenol] |  | 5.61 | 2.78
 | Oc1cc(-n2cccn2)ccc1-c1ccc(OC2CCNCC2F)nn1 (stereo not shown) [Example 17-10, 2-(6-((3-fluoropiperidin-4-yl)oxy)pyridazin-3-yl)-5-(1H-pyrazol-1-yl)-phenol] |  | 6.02 | 2.03
 | CN1C(C)(C)CC(Oc2ccc(-c3ccc(-n4cccn4)cc3O)nn2)CC1(C)C [Example 17-11, 2-[6-(1,2,2,6,6-pentamethyl-piperidin-4-yloxy)-pyridazin-3-yl]-5-pyrazol-1-yl-phenol] |  | 6.18 | 3.01
 | Oc1cc(-n2cccn2)ccc1-c1ccc(N2CCNCC2)nn1 [Example 18-1, 2-(6-piperazin-1-yl-pyridazin-3-yl)-5-pyrazol-1-yl-phenol] |  | 6.53 | 3.07

Compound | pEC50 [1] | SMN activity Fold [1] [Fold] | pEC50 [2] | SMN activity Fold [2] [Fold]
CN(c1ccc(-c2ccc(Cl)cc2O)nn1)C1CC(C)(C)N(C)C(C)(C)C1 [Example 3-2, 5-chloro-2-(6-(methyl(1,2,2,6,6-pentamethylpiperidin-4-yl)amino)pyridazin-3-yl)phenol] | 5.97 | 2.06 |  | 
CN(c1ccc(-c2cc(C#N)ccc2O)nn1)C1CC(C)(C)NC(C)(C)C1 [Example 3-5, 4-hydroxy-3-(6-(methyl(2,2,6,6-tetramethylpiperidin-4-yl)amino)pyridazin-3-yl)benzonitrile] | 7.00 | 2.38 |  | 
CN(c1ccc(-c2cc(C(F)(F)F)ccc2O)nn1)C1CC(C)(C)NC(C)(C)C1 [Example 3-7, 2-{6-[methyl-(2,2,6,6-tetramethyl-piperidin-4-yl)-amino]-pyridazin-3-yl}-4-trifluoromethyl-phenol] | 5.34 | 2.67 |  | 
CN(c1ccc(-c2cc(F)c(F)cc2O)nn1)C1CC(C)(C)NC(C)(C)C1 [Example 3-12, 4,5-difluoro-2-{6-[methyl-(2,2,6,6-tetramethyl-piperidin-4-yl)-amino]-pyridazin-3-yl}-phenol] | 6.89 | 2.70 |  | 
C=CCNC(=O)c1ccc(-c2ccc(N(C)C3CC(C)(C)NC(C)(C)C3)nn2)c(O)c1 [Example 8-1, N-allyl-3-hydroxy-4-(6-(methyl(2,2,6,6-tetramethylpiperidin-4-yl)amino)pyridazin-3-yl)benzamide] | 6.55 | 2.72 |  | 
